Test results as given in patent publication US12371416B2, “Compounds for inhibition of fibroblast activation protein” (USTAV ORGANICKE CHEMIE A BIOCHEMIE AV CR, V. V. I., priority 2020, dated 2025).

Assays:
Type in all cases: cell-based, human
Settings in all cases: 72 h
CCRF-CEM = assay: Cytotoxicity (XTT) on CCRF-CEM cells
Experimental: (§1) The cytotoxicity of the substances was measured on four tumour cell lines: CCRF-CEM, HepG2, Hela, HL-60. All cell lines were purchased from ATCC (Manassas, VA, USA). Cells were cultured in RPMI-1640 or DMEM medium containing 10% (wt/wt) FBS and 1% (wt/wt) GlutaMax. Cells were distributed at 2,000-10,000 per well of a 384-well plate (Thermo Fisher Scientific, Waltham, USA) and incubated overnight. After 24 hours, test substance solutions (10 or 100 μmol·l^−1) were added to the wells and the cells were incubated with the test substances at 37° C. and 5% (vol./vol.) CO2 for another 72 h. XTT dye (XTT cell proliferation kit II, Roche Diagnostics GmbH, Mannheim, Germany) was added to the wells according to the manufacturer's protocol. After one hour of incubation with the dye, the absorbance at 495 nm was measured and the signal was compared with the control (100% viability=cells without test substance).

HL-60 = assay: Cytotoxicity (XTT) on HL-60 cells
Experimental: as §1

Hela = assay: Cytotoxicity (XTT) on Hela cells
Experimental: as §1

HepG2 = assay: Cytotoxicity (XTT) on HepG2 cells
Experimental: as §1

Row | SMILES | Cell viability CEM 10 μM (CCRF-CEM) [% vs. control] | Cell viability CEM 100 μM (CCRF-CEM) [% vs. control] | Cell viability HL60 10 μM (HL-60) [% vs. control] | Cell viability HL60 100 μM (HL-60) [% vs. control] | Cell viability HeLa S3 10 μM (Hela) [% vs. control] | Cell viability HeLa S3 100 μM (Hela) [% vs. control] | Cell viability HepG2 10 μM (HepG2) [% vs. control] | Cell viability HepG2 100 μM (HepG2) [% vs. control]
1 | O=C(NCC(=O)N1CCCC1)C(=O)[C@@H]1CCCN1C(=O)CNC(=O)c1ccnc2ccccc12 [Compound 5b] | 90 | 109 | 111 | 86 | 93 | 101 | 83 | 106
2 | O=C(CNC(=O)C(=O)[C@@H]1CCCN1C(=O)CNC(=O)c1ccnc2ccccc12)NCc1ccccc1 [Compound 5d, (S)—N-(2-(2-(2-((2-(Benzylamino)-2-oxoethyl)amino)-2-oxoacetyl)pyrrolidin-1-yl)-2-oxoethyl)quinoline-4-carboxamide] | 89 | 107 | 112 | 95 | 95 | 96 | 82 | 89
3 | CC(C)NC(=O)CNC(=O)C(=O)[C@@H]1CCCN1C(=O)CNC(=O)c1ccnc2ccccc12 [Compound 5c, (S)—N-(2-(2-(2-((2-(Isopropylamino)-2-oxoethyl)amino)-2-oxoacetyl)pyrrolidin-1-yl)-2-oxoethyl)quinoline-4-carboxamide] | 113 | 108 | 86 | 89 | 119 | 99 | 96 | 108
4 | CN(C)C(=O)CNC(=O)C(=O)[C@@H]1CCCN1C(=O)CNC(=O)c1ccnc2ccccc12 [Compound 5a, (S)—N-(2-(2-(2-((2-(Dimethylamino)-2-oxoethyl)amino)-2-oxoacetyl)pyrrolidin-1-yl)-2-oxoethyl)quinoline-4-carboxamide] | 104 | 100 | 105 | 76 | 92 | 102 | 91 | 104
5 | COc1ccc(NC(=O)C(=O)[C@@H]2CCCN2C(=O)CNC(=O)c2ccnc3ccccc23)cc1 [Compound 3f, (S)—N-(2-(2-(2-((4-Methoxyphenyl)amino)-2-oxoacetyl)pyrrolidin-1-yl)-2-oxoethyl)quinoline-4-carboxamide] | 92 | 84 | 110 | 108 | 103 | 94 | 95 | 82
6 | COC(=O)[C@H](CCC(N)=O)NC(=O)CNC(=O)C(=O)[C@@H]1CCCN1C(=O)CNC(=O)c1ccnc2ccccc12 [Compound 5g, Methyl (2-oxo-2-((S)-1-((quinoline-4-carbonyl)glycyl)pyrrolidin-2-yl)acetyl)glycyl-L-glutaminate] | 114 | 101 | 88 | 103 | 109 | 99 | 102 | 108
7 | COC(=O)CNC(=O)C(=O)[C@@H]1CCCN1C(=O)CNC(=O)c1ccnc2ccccc12 [Compound 3k, Methyl (S)-(2-oxo-2-(1-((quinoline-4-carbonyl)glycyl)pyrrolidin-2-yl)acetyl)glycinate] | 110 | 123 | 112 | 103 | 104 | 94 | 109 | 105
8 | O=C(NCCc1ccccc1)C(=O)[C@@H]1CCCN1C(=O)CNC(=O)c1ccnc2ccccc12 [Compound 3d, (S)—N-(2-Oxo-2-(2-(2-oxo-2-(phenethylamino)acetyl)pyrrolidin-1-yl)ethyl)quinoline-4-carboxamide] | 105 | 85 | 110 | 107 | 86 | 81 | 88 | 89
9 | COC(=O)[C@H](CC(C)C)NC(=O)CNC(=O)C(=O)[C@@H]1CCCN1C(=O)CNC(=O)c1ccnc2ccccc12 [Compound 5e, Methyl (2-oxo-2-((S)-1-((quinoline-4-carbonyl)glycyl)pyrrolidin-2-yl)acetyl)glycyl-L-leucinate] | 96 | 104 | 112 | 83 | 99 | 106 | 75 | 110
10 | COC(=O)C(C)NC(=O)C(=O)[C@@H]1CCCN1C(=O)CNC(=O)c1ccnc2ccccc12 (mixture of isomers) [Compound 3m, Methyl (2-oxo-2-((S)-1-((quinoline-4-carbonyl)glycyl)pyrrolidin-2-yl)acetyl)alaninate] | 97 | 120 | 102 | 124 | 108 | 104 | 91 | 105
11 | O=C(NC1CC1)C(=O)[C@@H]1CCCN1C(=O)CNC(=O)c1ccnc2ccccc12 [Compound 3h, (S)—N-(2-(2-(2-(Cyclopropylamino)-2-oxoacetyl)pyrrolidin-1-yl)-2-oxoethyl)quinoline-4-carboxamide] | 94 | 115 | 110 | 95 | 89 | 103 | 88 | 108
12 | CC(C)NC(=O)C(=O)[C@@H]1CCCN1C(=O)CNC(=O)c1ccnc2ccccc12 [Compound 3i, (S)—N-(2-(2-(2-(Isopropylamino)-2-oxoacetyl)pyrrolidin-1-yl)-2-oxoethyl)quinoline-4-carboxamide] | 93 | 117 | 111 | 100 | 78 | 105 | 87 | 110
13 | COC(=O)c1ccc(NC(=O)C(=O)[C@@H]2CCCN2C(=O)CNC(=O)c2ccnc3ccccc23)cc1 [Compound 3g, Methyl (S)-4-(2-oxo-2-(1-((quinoline-4-carbonyl)glycyl)pyrrolidin-2-yl)acetamido)benzoate] | 106 | 73 | 100 | 103 | 98 | 89 | 93 | 63
